The values that follow come from patent publication US20100168093A1, “SUBSTITUTED 3-AMINO-4 -HYDROXY PYRROLIDINES COMPOUNDS, THEIR PREPARATION AND USE AS MEDICAMENTS” (priority 2006, published 2010).

Counter-ions that a name gives are not always drawn.

T1 sequence (Q60492 whole entry): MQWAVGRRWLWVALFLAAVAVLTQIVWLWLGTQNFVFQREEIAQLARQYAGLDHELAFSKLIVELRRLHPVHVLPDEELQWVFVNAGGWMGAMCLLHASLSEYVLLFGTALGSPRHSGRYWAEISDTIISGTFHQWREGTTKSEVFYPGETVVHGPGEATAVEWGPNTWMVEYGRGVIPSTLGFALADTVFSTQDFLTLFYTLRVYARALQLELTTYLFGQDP

One experiment has as its target T1, Sigma-1 receptor (Cavia porcellus, UniProt Q60492).
T1 construct: guinea pig brains were homogenized; from tissue; host or cells: guinea pig brain membranes
As to the kind of experiment: Sigma-1 receptor binding assay, [3H](+)-pentazocine displacement in brain membranes. As to conditions: 2.5 h, compound at 10^−7 M; [3H](+)-pentazocine 0.5 nM; guinea pig brain membranes; non-specific binding defined by 1 μM haloperidol; read-out: Percent Replacement Sigma-1 receptor [10^−7 M]. The procedure: Some representative compounds of the invention were tested for their activity as sigma (sigma-1) inhibitors. The following protocol was followed:
Brain membrane preparation and binding assays for the σ1-receptor were performed as described (DeHaven-Hudkins et al., 1992, Eur. J. Pharmacol. 227, 371-378.) with some modifications. In brief, guinea pig brains were homogenized in 10 vols. (w/v) of Tris-HCl 50 mM 0.32 M sucrose, pH 7.4, with a Kinematica Polytron PT 3000 at 15000 r.p.m. for 30 s. The homogenate was centrifuged at 1000g for 10 min at 4° C. and the supematants collected and centrifuged again at 48000 g for 15 min at 4° C. The pellet was resuspended in 10 volumes of Tris-HCl buffer (50 mM, pH 7.4), incubated at 37° C. for 30 min, and centrifuged at 48000 g for 20 min at 4° C. Following this, the pellet was resuspended in fresh Tris-HCl buffer (50 mM, pH 7.4) and stored on ice until use.
Each assay tube contained 10 μL of [^3H](+)-pentazocine (final concentration of 0.5 nM), 900 μL of the tissue suspension to a final assay volume of 1 mL and a final tissue concentration of approximately 30 mg tissue net weight/mL. Non-specific binding was defined by addition of a final concentration of 1 μM haloperidol. All tubes were incubated at 37° C. for 150 min before termination of the reaction by rapid filtration over Schleicher & Schuell GF 3362 glass fibre filters [previously soaked in a solution of 0.5% polyethylenimine for at least 1 h]. Filters were then washed with four times with 4 mL of cold Tris-HCl buffer (50 mM, pH 7.4). Following addition of scintillation cocktail, the samples were allowed to equilibrate overnight. The amount of bound radioactivity was determined by liquid scintillation spectrometry using a Wallac Winspectral 1414 liquid scintillation counter. Protein concentrations were determined by the method of Lowry et al. (1951; J. Biol. Chem, 193, 265.).
As to `CC(=O)O[C@@H]1CN(Cc2ccccc2)C[C@H]1N1CCN(S(=O)(=O)c2ccccc2-c2ccccc2)CC1` (relative stereo) [Example 27, trans 1-Benzyl-4-(4-(2-phenyl-phenylsulfonyl)piperazin-1-yl)pyrrolidin-3-yl acetate], the inhibition at 0.1 µM is 24.7%.

Turning to `O[C@@H]1CN(Cc2ccccc2)C[C@H]1N1CCc2ccccc2C1` [Example 1, (3,4-trans)-1-benzyl-4-(3,4-dihydroisoquinolin-2(1H)-yl)pyrrolidine-3-ol], the inhibition at 0.1 µM amounted to 84.9%.

Turning to `O[C@@H]1CN(Cc2ccccc2)C[C@H]1N1CCC(CN2CCc3ccccc3C2)CC1` [Example 5, (3,4-trans)-1-benzyl-4-(4-((3,4-dihydrolsoquinolin-2(1H)-yl)methyl)piperidin-1-yl)pyrrolidine-3-ol], the inhibition at 0.1 µM amounted to 63.5%.

Turning to `O[C@@H]1CN(Cc2ccccc2)C[C@H]1NCCCN1CCc2ccccc2C1` [Example 9, (3,4-trans)-1-benzyl-4-(3-(3,4-dihydroisoquinolin-2(1H)-yl)propylamino)pyrrolidine-3-ol], the inhibition at 0.1 µM stood at 38.6%.

For `COc1ccnc(N2CCN([C@@H]3CN(Cc4ccccc4)C[C@H]3O)CC2)n1` [Example 10, (3,4-trans)-1-benzyl-4-(4-(4-methoxypyrimidin-2-yl)piperazin-1-yl)pyrrolidine-3-ol], the inhibition at 0.1 µM stood at 77.8%.

With `O[C@@H]1CN(Cc2ccccc2)C[C@H]1N1CCc2cccc3c2C1CC3` (stereo partly drawn) [Example 11, (3,4-trans)-1-benzyl-4-(2,3,8,8a-tetrahydrocyclopenta[ij]isoquinolin-1(7H)-yl)pyrrolidine-3-ol], the inhibition at 0.1 µM is 81.1%.

With `CC(C)(C)OC(=O)N1CCN([C@@H]2CN(Cc3ccccc3)C[C@H]2O)CC1` [Example 12, tert-butyl-4-((3,4-trans)-1-benzyl-4-hydroxypyrrolidine-3-yl)piperazine-1-carboxylate], the inhibition at 0.1 µM stood at 96.5%.

Turning to `C[C@@H](c1ccccc1)N1C[C@@H](O)[C@H](N2CCc3ccccc3C2)C1` [Example 16, (3,4-trans)-4-(3,4-dihydroisoquinolin-2(1H)-yl)-1((S)-1-phenylethyl)pyrrolidine-3-ol], the inhibition at 0.1 µM was determined as 49.9%.

For `CC(=O)O[C@@H]1CN(Cc2ccccc2)C[C@H]1N1CCN(C(=O)OC(C)(C)C)CC1` [Example 24], the inhibition at 0.1 µM was found to be 73%.

On to `O[C@@H]1CN(Cc2ccccc2)C[C@H]1Nc1ccccc1` [Example 29, (3,4-trans)-1-benzyl-4-(phenylamino)pyrrolidin-3-ol], for which the inhibition at 0.1 µM amounted to 39.3%.

Consider `CCCCCCCCN[C@@H]1CN(Cc2ccccc2)C[C@H]1O` [Example 31, (3R,4R)-1-benzyl-4-(octylamino)pyrrolidin-3-ol], for which the inhibition at 0.1 µM was 89.9%.

For `COc1ccc(CN[C@@H]2CN(Cc3ccccc3)C[C@H]2O)cc1` [Example 32, (3,4-trans)-1-benzyl-4-(4-methoxybenzylamino)pyrrolidin-3-ol], the inhibition at 0.1 µM amounted to 59.1%.

For the compound `COc1ccc(N[C@@H]2CN(Cc3ccccc3)C[C@H]2O)cc1` [Example 37, (3R,4R)-1-benzyl-4-(4-methoxyphenylamino)pyrrolidin-3-ol], the inhibition at 0.1 µM came out at 65.4%.

Take `COC(=O)c1ccc(N[C@@H]2CN(Cc3ccccc3)C[C@H]2O)cc1` [Example 38, Methyl 4-((3,4-trans)-1-benzyl-4-hydroxypyrrolidin-3-ylamino)benzoate]: the inhibition at 0.1 µM amounted to 55.9%.

`CC(=O)O[C@@H]1CN(Cc2ccccc2)C[C@H]1N1CCN(S(=O)(=O)c2ccccc2Cl)CC1` [Example 52, (3R,4R)-1-benzyl-4(4-(2-chlorophenylsulfonyl)piperazin-1-yl)pyrrolidin-3-yl acetate]: the inhibition at 0.1 µM turned out to be 92.4%.

Take `CC(=O)O[C@@H]1CN(Cc2ccccc2)C[C@H]1N1CCN(S(=O)(=O)c2ccc(C)cc2)CC1` [Example 56, (3,4-trans)-1-benzyl-4-(4-tosylpiperazin-1-yl)pyrrolidin-3-yl acetate dihydrochloride]: the inhibition at 0.1 µM turned out to be 38%.

As for `Cc1ccc(S(=O)(=O)N2CCN([C@@H]3CN(Cc4ccccc4)C[C@H]3O)CC2)cc1` [Example 57, (3,4-trans)-1-benzyl-4-(4-tosylpiperazin-1-yl)pyrrolidin-3-ol dihydrochloride], the inhibition at 0.1 µM came to 16.8%.

Turning to `CC(=O)O[C@@H]1CN(Cc2ccccc2)C[C@H]1N1CCN(S(=O)(=O)c2cccc3ccccc23)CC1` [Example 60, (3,4-trans)-1-benzyl-4-(4-(naphthalen-1-ylsulfonyl)piperazin-1-yl)pyrrolidin-3-yl acetate dihydrochloride], the inhibition at 0.1 µM was found to be 40.8%.

Consider `O=S(=O)(c1cccc2ccccc12)N1CCN([C@@H]2CN(Cc3ccccc3)C[C@H]2O)CC1` [Example 61, (3,4-trans)-1-benzyl-4-(4-(naphthalen-1-ylsulfonyl)piperazin-1-yl)pyrrolidin-3-ol dihydrochloride], for which the inhibition at 0.1 µM was found to be 30.1%.

Consider `O=S(=O)(c1ccccc1Br)N1CCN([C@@H]2CN(Cc3ccccc3)C[C@H]2O)CC1` [Example 67, (3,4-trans)-1-benzyl-4-(4-(2-bromophenylsulfonyl)piperazin-1-yl)pyrrolidin-3-ol dihydrochloride], for which the inhibition at 0.1 µM turned out to be 86.7%.

For `Cc1ccc(F)cc1S(=O)(=O)N1CCN([C@@H]2CN(Cc3ccccc3)C[C@H]2O)CC1` [Example 70, (3,4-trans)-1-benzyl-4-(4-(5-fluoro-2-methylphenylsulfonyl)piperazin-1-yl)pyrrolidin-3-ol dihydrochioride], the inhibition at 0.1 µM was 81.4%.

With `O=S(=O)(c1ccccc1)N1CCN([C@@H]2CN(Cc3ccccc3)C[C@H]2O)CC1` [Example 73, (3,4-trans)-1-benzyl-4-(4-(phenylsulfonyl)piperazin-1-yl)pyrrolidin-3-ol], the inhibition at 0.1 µM stood at 84%.

On to `CC(=O)O[C@@H]1CN(Cc2ccccc2)C[C@H]1N1CCN(S(=O)(=O)c2ccccc2F)CC1` [Example 75, (3,4-trans)-1-benzyl-4-(4-(2-fluorophenylsulfonyl)piperazin-1-yl)pyrrolidin-3-yl acetate dihydrochloride], for which the inhibition at 0.1 µM came out at 95.5%.

For `O=S(=O)(c1ccccc1F)N1CCN([C@@H]2CN(Cc3ccccc3)C[C@H]2O)CC1` [Example 76, (3,4-trans)-1-benzyl-4-(4-(2-fluorophenylsulfonyl)piperazin-1-yl)pyrrolidin-3-ol dihydrochloride], the inhibition at 0.1 µM was found to be 85%.

As to `O=S(=O)(c1ccccc1F)N1CCN([C@H]2CN(Cc3ccccc3)C[C@@H]2O)CC1` [Example 77, (3S,4S)-1-benzyl-4-(4-(2-fluorophenylsulfonyl)piperazin-1-yl)pyrrolidin-3-ol dihydrochloride], the inhibition at 0.1 µM was determined as 46.1%.

`O[C@@H]1CN(Cc2ccccc2)C[C@H]1N1CCN(Cc2c(F)cccc2Cl)CC1` [Example 78, (3,4-trans)-1-benzyl-4-(4-(2-chloro-6-fluorobenzyl)piperazin-1-yl)pyrrolidine-3-ol]: the inhibition at 0.1 µM came to 81.9%.

On to `O[C@@H]1CN(Cc2ccccc2)C[C@H]1N1CCN(Cc2ccc(Cl)c(Cl)c2)CC1` [Example 79, (3,4-trans)-1-benzyl-4-(4-(3,4-dichlorobenzyl)piperazin-1-yl)pyrrolidine-3-ol], for which the inhibition at 0.1 µM was found to be 88.4%.

For the compound `O[C@@H]1CN(Cc2ccccc2)C[C@H]1N1CCN(c2ccc(F)cc2)CC1` [Example 83, (3,4-trans)-1-benzyl-4-(4-(4-fluorophenyl)piperazin-1-yl)pyrrolidin-3-ol], the inhibition at 0.1 µM worked out at 69.7%.

For `O[C@@H]1CN(Cc2ccccc2)C[C@H]1N1CCN(c2ccccc2Cl)CC1` [Example 85], the inhibition at 0.1 µM came out at 107%.

`O[C@H]1CN(Cc2ccccc2)C[C@@H]1N1CCN(c2ccccc2Cl)CC1` [Example 86, (3S,4S)-1-benzyl-4-(4-(2-chlorophenyl)piperazin-1-yl)pyrrolidin-3-ol]: the inhibition at 0.1 µM worked out at 86.2%.

For the compound `O[C@@H]1CN(Cc2ccccc2)C[C@H]1N1CCN(c2ccc(Cl)c(Cl)c2)CC1` [Example 88, (3,4-trans)-1-benzyl-4-(4-(3,4-dichlorophenyl)piperazin-1-yl)pyrrolidin-3-ol], the inhibition at 0.1 µM was 93.1%.

The same experiment, now with this note: compound at 10^−7 M; [3H](+)-pentazocine 0.5 nM; guinea pig brain membranes; non-specific binding defined by 1 μM haloperidol.
With `O=S(=O)(c1ccccc1F)N1CCN([C@@H]2CN(Cc3ccccc3)C[C@H]2O)CC1` [Example 48, (3R,4R)-1-benzyl-4-(4-(2-fluorophenylsulfonyl)piperazin-1-yl)pyrrolidin-3-ol], the “Percent Replacement Sigma-1 receptor [10^−7 M]” value came out at 96.5%.

As to `O[C@@H]1CN(Cc2ccccc2)C[C@H]1N1CCN(c2ccccc2Cl)CC1` [Example 84, (3,4-trans)-1-benzyl-4-(4-(2-chlorophenyl)piperazin-1-yl)pyrrolidin-3-ol], the “Percent Replacement Sigma-1 receptor [10^−7 M]” value is on record as 94.6%.
